Results on 30 compounds are retold here after patent US11339144B2 (Navitor Pharmaceuticals, Inc., priority 2017, dated 2022).

Test [1] addresses HA-GST-Rheb (GTP-γ-S loaded) activating mTORC1 (Homo sapiens (Human), UniProt Q15382). The experiment in a line: Rheb-dependent in vitro kinase assay (Rheb-IVK; LanthaScreen or Western readout). As to conditions: Rheb-dependent in vitro kinase assay; read-out: IVK IC50. The test is classed as biochemical.
The target of a further test is Rheb (Homo sapiens (Human), UniProt Q15382). Briefly: Affinity Selection Mass Spectrometry (ASMS). The test is classed as binding. Conditions: affinity (R3/R0) in Affinity Selection Mass Spectrometry assay. As for the experimental part: Method 2 (Affinity Selection Mass Spectrometry
Sequence of Rheb (Q15382 1-169 limits assumed): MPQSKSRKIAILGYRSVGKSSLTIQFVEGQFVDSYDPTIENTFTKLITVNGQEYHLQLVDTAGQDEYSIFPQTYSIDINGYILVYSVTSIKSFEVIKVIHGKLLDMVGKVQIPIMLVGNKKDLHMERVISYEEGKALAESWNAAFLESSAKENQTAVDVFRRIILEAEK
Protein: Rheb (19 KDa) in the following buffer: 20 mM Tris, pH 8.0, 200 mM NaCl, 2 mM DTT, 5 mM MgCl2 was prepared as under.
Human Rheb protein (I-169) was purified from BL21 (DE3) E. coli using a His-Smt-Rheb expression vector. The cell paste was lysed in lysis buffer (50 mM HEPES pH 7.5, 0.5 M NaCl, 5% Glycerol, 1% CHAPS, EDTA free protease inhibitor tablets, lysozyme to 1 mg/mL, benzonase 250U), sonicated, and purified on a HiTrap Ni Chelating Column (GE Healthcare) using the following buffer: 50 mM HEPES pH 7.5, 0.5 M NaCl, 5% Glycerol, and imidazole increasing in concentration from 5 mM to 500 mM. The His-Smt tag was cleaved using a U1p1 enzyme and dialyzed into 50 mM HEPES pH 7.5, 0.5 M NaCl, 5% Glycerol. The resultant protein was again purified on a Ni Chelating column to remove the U1p1 enzyme and His-Smt tag and then purified by size exclusion chromatography on a Sephacryl S-100 26/60 column into the following final buffer: 20 mM NaPhos pH 7.0, 100 mM NaCl, 5 mM MgCl2, 2 mM TCEP.
Concentrations: 60 μM Rheb, 180 μM GDP and 2 μM of each compound,
Ultrafiltration Filter (Sartorius, Germany) MW cutoff: 10 KDa
• (a) Sample preparation: Prepare sample for each group in 1.5 mL microcentrifuge tube according to the experimental design, total volume 550 μL. In a standard ASMS experiment there are two groups: Protein plus (P+L+) and protein minus (P−L+). • (b) Transfer 50 μL from the 550 μL to a vial as R0 sample. Incubate the rest solution for 30 min at room temperature. Then transfer the 500 μL into an ultrafiltration filter tube and centrifuge at 12×10^3 rpm for ˜10 min, leave about 50 μL solution (otherwise adjust this time). • (c) Add incubation buffer to the ultrafiltration filter tube to about 500 μL. Stir gently and centrifuge mixtures as above, leave about 50 μL solution. • (d) Repeat the step c. Transfer the remaining 50 μL upper layer solution to a new vial as R^3 sample. Sample Extraction: Add 150 μL MeCN to denature the protein completely. Centrifuge at 12×10^3 rpm for 5 min. Transfer the supernatant into LC-MS auto sampler vials for LC-MS analysis (5 uL injection).
Waters Acquity UPLC system, Waters ACQUITY UPLC BEH C18 column (2.1×50 mm, 1.7 μM); Mobile phase A: 0.1% formic acid solution, B: MeCN; 0.3 mL/min, 5 μL injection, gradient elution (Table 5).
Waters Synapt G1 Q-TOF system, positive or negative ion scan modes; Capillary voltage: 3.0 kV; Method: MSE; Mass range: m/z=100-1000; Source temperature: 120° C.; Desolvation temperature: 400° C.; Collision voltage: 35 V; Sampling Cone: 35 V; Extraction Cone: 4.0 V; Cone Gas: 50 L/h; Desolvation Gas: 800 L/h.

Sequence of HA-GST-Rheb (GTP-γ-S loaded) activating mTORC1 (Q15382 1-181): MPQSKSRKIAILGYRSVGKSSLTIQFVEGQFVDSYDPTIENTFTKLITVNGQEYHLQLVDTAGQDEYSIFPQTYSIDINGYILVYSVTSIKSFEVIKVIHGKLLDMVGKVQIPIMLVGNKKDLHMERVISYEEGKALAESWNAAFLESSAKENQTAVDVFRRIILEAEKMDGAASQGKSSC

Regarding `CN1CCN(c2cccc(NC(=O)c3cc4c(Sc5ccc(Cl)cc5Cl)cc(Cl)c(Cl)c4[nH]3)c2)CC1` [I-33, 6,7-dichloro-4-(2,4-dichlorophenylthio)-N-(3-(4-methylpiperazin-1-yl)phenyl)-1H-indole-2-carboxamide], the IC50 in test [1] was less than 10 µM. Also, the “ASMS (R3/R0)” value at Rheb is recorded as “A (an affinity (R3/R0)>100%)”.

For the compound `COCc1cc2c(Br)cc(Sc3ccc(Cl)c(Cl)c3)cc2n1Cc1ccc(C(=O)N(C)C)cc1` [I-34], the IC50 in test [1] is more than 100 µM. In addition, on Rheb, the “ASMS (R3/R0)” value was “B (an affinity (R3/R0) between 100% and 20%)”.

In the case of `CN1CCC(CNC(=O)c2cc3c(Sc4ccc(Cl)cc4Cl)cc(Cl)c(Cl)c3[nH]2)CC1` [I-35, 6,7-dichloro-4-(2,4-dichlorophenylthio)-N-((1-methylpiperidin-4-yl)methyl)-1H-indole-2-carboxamide], the IC50 in test [1] is less than 10 µM. Moreover, the “ASMS (R3/R0)” value at Rheb was “A (an affinity (R3/R0)>100%)”.

For `O=C(O)c1ccc(CCn2c(C(=O)O)cc3c(Br)cc(Oc4ccccc4)cc32)cc1` [I-36], the IC50 in test [1] is more than 100 µM. In addition, the “ASMS (R3/R0)” value on Rheb is given as “C (an affinity (R3/R0)<20%)”.

With `CN(C)C(=O)c1ccc(Cn2c(CN)cc3c(Br)cc(Sc4ccc(Cl)c(Cl)c4)cc32)cc1` [I-37], the IC50 in test [1] was more than 100 µM. Besides, the “ASMS (R3/R0)” value at Rheb is on record as “C (an affinity (R3/R0)<20%)”.

On to `CNCc1cc2c(Br)cc(Sc3ccc(Cl)c(Cl)c3)cc2n1Cc1ccc(C(=O)N(C)C)cc1` [I-38], for which the IC50 in test [1] is more than 100 µM. In addition, the “ASMS (R3/R0)” value at Rheb was “A (an affinity (R3/R0)>100%)”.

Take `CN(C)Cc1cc2c(Br)cc(Sc3ccc(Cl)c(Cl)c3)cc2n1Cc1ccc(C(=O)N(C)C)cc1` [I-39]: in test [1], the IC50 is more than 100 µM. Moreover, the “ASMS (R3/R0)” value on Rheb was “B (an affinity (R3/R0) between 100% and 20%)”.

Consider `CN(C)C(=O)c1cccc(Cn2c(C(=O)O)cc3c(Br)cc(Oc4ccccc4)cc32)c1` [I-40, 4-bromo-1-(3-(dimethylcarbamoyl)benzyl)-6-phenoxy-1H-indole-2-carboxylic acid], for which the IC50 in test [1] lay within 10 to 100 µM. At Rheb, the “ASMS (R3/R0)” value is listed as “C (an affinity (R3/R0)<20%)”.

As for `O=C(O)c1cc2c(Oc3cccc4cnccc34)cc(Cl)cc2[nH]1` [I-41, 6-chloro-4-(isoquinolin-5-yloxy)-1H-indole-2-carboxylic acid], the IC50 in test [1] was in the range of 100 to 300 µM. Further, the “ASMS (R3/R0)” value on Rheb is on record as “C (an affinity (R3/R0)<20%)”.

As to `O=C(O)c1ccc(Cn2c(C(=O)O)cc3c(Br)cc(Sc4ccc(Cl)c(Cl)c4)cc32)cc1` [I-42, 4-bromo-1-(4-carboxybenzyl)-6-(3,4-dichlorophenylthio)-1H-indole-2-carboxylic acid], in test [1], the IC50 is less than 10 µM. For the same compound, on Rheb, the “ASMS (R3/R0)” value was “B (an affinity (R3/R0) between 100% and 20%)”.

`O=C(O)c1cc2c(Br)cc(Sc3ccc(Cl)c(Cl)c3)cc2n1Cc1ccc(C(=O)N2CCNCC2)cc1` [I-43]: the IC50 in test [1] is more than 100 µM. Further, the “ASMS (R3/R0)” value on Rheb is recorded as “A (an affinity (R3/R0)>100%)”.

With `CC(C)(C)OC(=O)N1CCN(C(=O)c2ccc(Cn3c(C(=O)O)cc4c(Br)cc(Sc5ccc(Cl)c(Cl)c5)cc43)cc2)CC1` [I-44], the IC50 in test [1] was more than 100 µM. Besides, the “ASMS (R3/R0)” value on Rheb was “B (an affinity (R3/R0) between 100% and 20%)”.

With `O=C(O)c1cc2c(Sc3ccc(Cl)cc3Cl)cc(Cl)c(Cl)c2[nH]1` [I-45, 6,7-dichloro-4-(2,4-dichlorophenylthio)-1H-indole-2-carboxylic acid], the IC50 in test [1] is less than 10 µM. The “ASMS (R3/R0)” value on Rheb was “A (an affinity (R3/R0)>100%)”.

Turning to `CN1CCC(N(C)C(=O)c2ccc(Cn3c(C(=O)O)cc4c(Br)cc(Oc5ccccc5)cc43)cc2)C1` (stereo not drawn) [I-46], in test [1], the IC50 is more than 3 µM. The “ASMS (R3/R0)” value at Rheb is listed as “C (an affinity (R3/R0)<20%)”.

As for `O=C(O)c1cc2c(Cl)cc(-c3cc(Cl)cc(Cl)c3)cc2[nH]1` [I-47, 4-chloro-6-(3,5-dichlorophenyl)-1H-indole-2-carboxylic acid], the IC50 in test [1] is 10 to 100 µM. Also, the “ASMS (R3/R0)” value on Rheb is “B (an affinity (R3/R0) between 100% and 20%)”.

Turning to `O=C(O)c1cc2c(Cl)cc(-c3ccccc3)cc2[nH]1` [I-48, 4-chloro-6-phenyl-1H-indole-2-carboxylic acid], the IC50 in test [1] is 10 to 100 µM. In addition, on Rheb, the “ASMS (R3/R0)” value is on record as “C (an affinity (R3/R0)<20%)”.

As for `O=C(O)c1cc2c(-c3cc(Cl)cc(Cl)c3)cc(Cl)cc2[nH]1` [I-49, 6-chloro-4-(3,5-dichlorophenyl)-1H-indole-2-carboxylic acid], the IC50 in test [1] was less than 10 µM. In addition, the “ASMS (R3/R0)” value on Rheb is “B (an affinity (R3/R0) between 100% and 20%)”.

With `O=C(O)c1cc2c(Br)cc(Sc3ccc(Cl)c(Cl)c3)cc2n1Cc1ccc(C(=O)N(CCO)CCO)cc1` [I-50, 1-(4-(bis(2-hydroxyethyl)carbamoyl)benzyl)-4-bromo-6-(3,4-dichlorophenylthio)-1H-indole-2-carboxylic acid], the IC50 in test [1] is less than 10 µM. Also, the “ASMS (R3/R0)” value on Rheb was “B (an affinity (R3/R0) between 100% and 20%)”.

For `CN1CCN(C(=O)c2ccc(Cn3c(C(=O)O)cc4c(Br)cc(Sc5ccc(Cl)c(Cl)c5)cc43)cc2)CC1` [I-52, 4-bromo-6-(3,4-dichlorophenylthio)-1-(4-(4-methylpiperazine-1-carbonyl)benzyl)-1H-indole-2-carboxylic acid], in test [1], the IC50 was in the range of 10 to 100 µM. Moreover, at Rheb, the “ASMS (R3/R0)” value was “B (an affinity (R3/R0) between 100% and 20%)”.

`CN1CCC(NC(=O)c2ccc(Cn3c(C(=O)O)cc4c(Br)cc(Oc5ccccc5)cc43)cc2)C1` (stereo not drawn) [I-53]: in test [1], the IC50 was more than 100 µM. On Rheb, the “ASMS (R3/R0)” value was “B (an affinity (R3/R0) between 100% and 20%)”.

In the case of `O=C(O)c1cc2c(-c3ccccc3)cc(Cl)cc2[nH]1` [I-54, 6-chloro-4-phenyl-1H-indole-2-carboxylic acid], the IC50 in test [1] lay in the range of 100 to 300 µM. Also, on Rheb, the “ASMS (R3/R0)” value is recorded as “C (an affinity (R3/R0)<20%)”.

Take `CC(C)(O)CNC(=O)c1ccc(Cn2c(C(=O)O)cc3c(Br)cc(Oc4ccccc4)cc32)cc1` [I-55, 4-bromo-1-(4-(2-hydroxy-2-methylpropylcarbamoyl)benzyl)-6-phenoxy-1H-indole-2-carboxylic acid]: the IC50 in test [1] was 10 to 100 µM. For the same compound, on Rheb, the “ASMS (R3/R0)” value is “C (an affinity (R3/R0)<20%)”.

Take `O=C(Nc1cccnc1)c1ccc(Cn2c(C(=O)O)cc3c(Br)cc(Oc4ccccc4)cc32)cc1` [I-56, 4-bromo-6-phenoxy-1-(4-(pyridin-3-ylcarbamoyl)benzyl)-1H-indole-2-carboxylic acid]: in test [1], the IC50 is 10 to 100 µM. Also, the “ASMS (R3/R0)” value at Rheb is “B (an affinity (R3/R0) between 100% and 20%)”.

Consider `CN1CCC[C@@H]1CNC(=O)c1cc2c(Br)cc(Sc3ccc(Cl)c(Cl)c3)cc2[nH]1` [I-57], for which the IC50 in test [1] was more than 100 µM. Besides, the “ASMS (R3/R0)” value on Rheb was “A (an affinity (R3/R0)>100%)”.

On to `Cc1cc(Sc2ccc(Cl)cc2)c2cc(C(=O)O)[nH]c2c1C` [I-58, 4-(4-chlorophenylthio)-6,7-dimethyl-1H-indole-2-carboxylic acid], for which the IC50 in test [1] was 10 to 100 µM. The “ASMS (R3/R0)” value at Rheb was “B (an affinity (R3/R0) between 100% and 20%)”.

On to `O=C1CCc2ccc(Oc3cc(Cl)cc4[nH]c(CO)cc34)cc2N1` [I-59], for which the IC50 in test [1] is more than 100 µM. Besides, the “ASMS (R3/R0)” value at Rheb is listed as “C (an affinity (R3/R0)<20%)”.

On to `O=C(O)c1cc2c(OCc3ccc(Cl)cc3)cc(Cl)c(Cl)c2[nH]1` [I-60, 6,7-dichloro-4-(4-chlorobenzyloxy)-1H-indole-2-carboxylic acid], for which, in test [1], the IC50 fell in the range of 10 to 100 µM. The “ASMS (R3/R0)” value on Rheb is “B (an affinity (R3/R0) between 100% and 20%)”.

Turning to `O=C(O)c1cc2c(Br)cc(Oc3ccccc3)cc2n1Cc1ccc(C(=O)N2CCNCC2)cc1` [I-61], the IC50 in test [1] is more than 100 µM. Besides, the “ASMS (R3/R0)” value at Rheb is “C (an affinity (R3/R0)<20%)”.

`CC(C)(C)OC(=O)N1CCN(C(=O)c2ccc(Cn3c(C(=O)O)cc4c(Br)cc(Oc5ccccc5)cc43)cc2)CC1` [I-62]: the IC50 in test [1] was more than 100 µM. Further, the “ASMS (R3/R0)” value at Rheb is “B (an affinity (R3/R0) between 100% and 20%)”.

In the case of `O=C(Nc1ncc[nH]1)c1cc2c(Sc3ccc(Cl)cc3)cc(Cl)cc2[nH]1` [I-63], the IC50 in test [1] was more than 100 µM. In addition, the “ASMS (R3/R0)” value at Rheb was “A (an affinity (R3/R0)>100%)”.

The IC50 is the concentration needed to halve the response being measured.
